Broadly, the IC50 is the concentration needed to halve the response being measured.

What all share (assay type): biochemical
For assay [1], the target named is human JAK2 catalytic kinase (JH1) domain (Homo sapiens (Human), UniProt O60674). The experiment in a line: ADP-Glo Kinase Assay, recombinant JAK2 catalytic kinase (JH1) domain. The note with it: recombinant JH1 domain 0.2 nM, 15 μM ATP, JAK3-974 peptide, mean, read-out: JAK2 biochem IC50 (nM) Mean. Put shortly:
(§1)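 Compounds were titrated in 11 points of 3-fold dilution starting at 10 μM or 1 μM. Enzyme (JAK1 4 nM, JAK2 0.2 nM, JAK3 0.3 nM, TYK2 2 nM) and 50 μM peptide reacted for 100 minutes, followed by ADP-to-luminescence detection; IC50 by 4-parameter fit.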
In general terms: ADP-Glo turns the ADP formed in a reaction into a luminescent signal.

The target in assay [2] is human TYK2 catalytic kinase (JH1) domain (Homo sapiens (Human), UniProt P29597). The experiment in a line: ADP-Glo Kinase Assay, recombinant TYK2 catalytic kinase (JH1) domain. The note with it: recombinant JH1 domain 2 nM, 10 μM ATP, JAK3-974 peptide, mean, read-out: TYK2 biochem IC50 (nM) Mean. The method, boiled down:
as §1

Assay [3] addresses human JAK3 catalytic kinase (JH1) domain (Homo sapiens (Human), UniProt P52333). Briefly: ADP-Glo Kinase Assay, recombinant JAK3 catalytic kinase (JH1) domain. The note with it: recombinant JH1 domain 0.3 nM, 4 μM ATP, JAK3-974 peptide, mean, read-out: JAK3 biochem IC50 (nM) Mean. Put shortly:
as §1

Assay [4] concerns the target human JAK1 catalytic kinase (JH1) domain (Homo sapiens (Human), UniProt P23458). Briefly: ADP-Glo Kinase Assay, recombinant JAK1 catalytic kinase (JH1) domain. The note with it: recombinant JH1 domain 4 nM, 35 μM ATP, JAK3-342 peptide, mean, read-out: JAK1 biochem IC50 (nM) Mean. Put shortly: as §1

Where a name gives a salt, the structure may show the parent alone.

Chain of human TYK2 catalytic kinase (JH1) domain (P29597 897-1176): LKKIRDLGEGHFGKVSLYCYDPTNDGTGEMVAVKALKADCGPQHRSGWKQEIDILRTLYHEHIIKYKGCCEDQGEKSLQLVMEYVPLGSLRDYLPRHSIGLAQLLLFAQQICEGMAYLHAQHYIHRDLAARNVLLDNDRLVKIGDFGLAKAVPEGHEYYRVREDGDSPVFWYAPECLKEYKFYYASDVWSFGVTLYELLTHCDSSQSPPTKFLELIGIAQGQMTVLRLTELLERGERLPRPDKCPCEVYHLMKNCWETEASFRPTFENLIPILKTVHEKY
Chain of human JAK2 catalytic kinase (JH1) domain (O60674 849-1124): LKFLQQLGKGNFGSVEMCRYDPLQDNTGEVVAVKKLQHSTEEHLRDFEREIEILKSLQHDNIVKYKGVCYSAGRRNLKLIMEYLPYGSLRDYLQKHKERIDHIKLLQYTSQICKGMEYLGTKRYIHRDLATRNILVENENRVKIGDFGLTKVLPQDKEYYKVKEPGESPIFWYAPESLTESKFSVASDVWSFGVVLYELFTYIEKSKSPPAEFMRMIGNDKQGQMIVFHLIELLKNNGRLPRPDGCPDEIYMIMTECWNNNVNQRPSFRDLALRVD
Chain of human JAK1 catalytic kinase (JH1) domain (P23458 875-1153): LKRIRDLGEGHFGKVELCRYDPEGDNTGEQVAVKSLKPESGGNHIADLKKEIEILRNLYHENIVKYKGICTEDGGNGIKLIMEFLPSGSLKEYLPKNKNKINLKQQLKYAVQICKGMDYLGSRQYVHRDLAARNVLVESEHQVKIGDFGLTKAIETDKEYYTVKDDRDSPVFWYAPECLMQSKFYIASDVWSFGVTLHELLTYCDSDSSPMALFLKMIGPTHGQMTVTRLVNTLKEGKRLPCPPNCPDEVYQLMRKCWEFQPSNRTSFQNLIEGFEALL
Chain of human JAK3 catalytic kinase (JH1) domain (P52333 822-1111): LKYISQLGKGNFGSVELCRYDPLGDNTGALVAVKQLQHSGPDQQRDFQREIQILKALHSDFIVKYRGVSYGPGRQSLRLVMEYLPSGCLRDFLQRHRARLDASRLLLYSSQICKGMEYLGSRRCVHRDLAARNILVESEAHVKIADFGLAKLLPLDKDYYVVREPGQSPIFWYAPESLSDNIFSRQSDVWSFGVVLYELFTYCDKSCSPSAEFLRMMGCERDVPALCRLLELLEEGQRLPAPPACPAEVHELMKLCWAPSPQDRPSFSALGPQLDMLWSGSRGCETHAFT

With `CNc1cc(-c2cc3c(N4CC5CCC(C4)N5C(=O)[C@@H]4C[C@H]4F)ncnn3c2)ccn1` [Example 94, ((1S,2R)-2-fluorocyclopropyl)(3-(6-(2-(methylamino)pyridin-4-yl)pyrrolo[2,1-f][1,2,4]triazin-4-yl)-3,8-diazabicyclo[3.2.1]octan-8-yl)methanone], the concentration for half-maximal inhibition (IC50) is 590 nM in assay [1], 18.6 nM in assay [2], 2940 nM in assay [3] and 230 nM in assay [4].
In the case of `O=C(C1CC1)N1C2CCC1CN(c1ncnn3cc(-c4cnn(C5COC5)c4)cc13)C2` [Example 151], the IC50 in assay [1] was 4100 nM; in assay [2] it was 239 nM; in assay [3], 3380 nM; in assay [4], 3300 nM.
The matching figures for `Cc1cncc(-c2cc3c(N4CC5CCC(C4)N5C(=O)[C@@H]4C[C@H]4F)ccnn3c2)n1` [Example 130, ((1S,2R)-2-fluorocyclopropyl)(3-(6-(6-methylpyrazin-2-yl)pyrrolo[1,2-b]pyridazin-4-yl)-3,8-diazabicyclo[3.2.1]octan-8-yl)methanone]: 674 nM, 52.8 nM, 5420 nM and 806 nM.
Taken in the same sequence, the figures for `N#C[C@H]1C[C@@H]1C(=O)N1C2CCC1CN(c1ncnn3cc(-c4cnn(C(F)F)c4)cc13)C2` (racemic) [Example 53, Rac-(1S,2S)-2-(3-(6-(1-(difluoromethyl)-1H-pyrazol-4-yl)pyrrolo[2,1-f][1,2,4]triazin-4-yl)-3,8-diazabicyclo[3.2.1]octane-8-carbonyl)cyclopropane-1-carbonitrile] were 3380 nM, 166 nM, 7370 nM and 840 nM.
Taken in the same sequence, the figures for `CCOC1CC1C(=O)N1C2CCC1CN(c1ncnn3cc(-c4cnn(C(F)F)c4)cc13)C2` (stereo not shown) [Example 35, (3-(6-(1-(difluoromethyl)-1H-pyrazol-4-yl)pyrrolo[2,1-f][1,2,4]triazin-4-yl)-3,8-diazabicyclo[3.2.1]octan-8-yl)(2-ethoxycyclopropyl)methanone trifluoroacetate] were 10000 nM, 856 nM, 10000 nM and 4660 nM.
As for `COc1cncc(-c2cc3c(N4CC5CCC(C4)N5C(=O)[C@@H]4C[C@H]4F)ccnn3c2)n1` [Example 123, ((1S,2R)-2-fluorocyclopropyl)(3-(6-(6-methoxypyrazin-2-yl)pyrrolo[1,2-b]pyridazin-4-yl)-3,8-diazabicyclo[3.2.1]octan-8-yl)methanone], the IC50 in assay [1] stood at 386 nM; in assay [2], 23.7 nM; in assay [3], 5510 nM; in assay [4] it was 302 nM.
The matching figures for `Cn1cc(-c2cc3c(N4CC5CCC(C4)N5C(=O)C4CC4)ncnn3c2)nn1` [Example 186, cyclopropyl(3-(6-(1-methyl-1H-1,2,3-triazol-4-yl)pyrrolo[2,1-f][1,2,4]triazin-4-yl)-3,8-diazabicyclo[3.2.1]octan-8-yl)methanone]: 9850 nM, 845 nM, at least 10000 nM and at least 10000 nM.
The matching figures for `O=C(C1C(F)(F)C12CC2)N1C2CCC1CN(c1ncnn3cc(-c4cnn(C(F)F)c4)cc13)C2` (stereo not shown) [Example 10, (3-(6-(1-(difluoromethyl)-1H-pyrazol-4-yl)pyrrolo[2,1-f][1,2,4]triazin-4-yl)-3,8-diazabicyclo[3.2.1]octan-8-yl)(2,2-difluorospiro[2.2]pentan-1-yl)methanone]: 4330 nM, 207 nM, 3220 nM and 969 nM.
On to `Cn1cc(-c2cc3c(N4CC5CCC(C4)N5C(=O)C4CC(F)(F)C4)ncnn3c2)cn1` [Example 70, (3,3-difluorocyclobutyl)(3-(6-(1-methyl-1H-pyrazol-4-yl)pyrrolo[2,1-f][1,2,4]triazin-4-yl)-3,8-diazabicyclo[3.2.1]octan-8-yl)methanone], for which the concentration for half-maximal inhibition (IC50) was found to be 6360 nM in assay [1], 382 nM in assay [2], 5090 nM in assay [3] and 2430 nM in assay [4].
Taken in the same sequence, the figures for `N#Cc1cc(-c2nc3c(N4CC5CCC(C4)N5C(=O)[C@@H]4C[C@H]4F)ccnc3[nH]2)ccn1` [Example 204, 4-(7-(8-((1S,2R)-2-fluorocyclopropane-1-carbonyl)-3,8-diazabicyclo[3.2.1]octan-3-yl)-3H-imidazo[4,5-b]pyridin-2-yl)picolinonitrile] were 49 nM, 12 nM, 716 nM and 36 nM.
Taken in the same sequence, the figures for `CC(C(=O)N1C2CCC1CN(c1ncnn3cc(-c4cnn(C(F)F)c4)cc13)C2)C(F)(F)F` (stereo not shown) [Example 31, 1-(3-(6-(1-(difluoromethyl)-1H-pyrazol-4-yl)pyrrolo[2,1-f][1,2,4]triazin-4-yl)-3,8-diazabicyclo[3.2.1]octan-8-yl)-3,3,3-trifluoro-2-methylpropan-1-one trifluoroacetate] were 4460 nM, 193 nM, 6320 nM and 1480 nM.
Taken in the same sequence, the figures for `O=C([C@H]1C[C@H]1F)N1C2CCC1CN(c1ncnn3cc(-c4cnn(C(F)F)c4)cc13)C2` (racemic) [Example 46, Rac-(3-(6-(1-(difluoromethyl)-1H-pyrazol-4-yl)pyrrolo[2,1-f][1,2,4]triazin-4-yl)-3,8-diazabicyclo[3.2.1]octan-8-yl)((1R,2R)-2-fluorocyclopropyl)methanone] were 9740 nM, 668 nM, 6110 nM and 1230 nM.
On to `Cn1cc(-c2nc3c(N4CC5CCC(C4)N5C(=O)[C@@H]4C[C@H]4F)c(F)cnc3[nH]2)c(F)n1` [Example 213, (3-(6-fluoro-2-(3-fluoro-1-methyl-1H-pyrazol-4-yl)-3H-imidazo[4,5-b]pyridin-7-yl)-3,8-diazabicyclo[3.2.1]octan-8-yl)((1S,2R)-2-fluorocyclopropyl)methanone], for which the IC50 stood at 25 nM in assay [1], 2.5 nM in assay [2], 87 nM in assay [3] and 37 nM in assay [4].
Taken in the same sequence, the figures for `COc1nn(C)cc1-c1cc2c(N3CC4CCC(C3)N4C(=O)[C@@H]3C[C@H]3F)ncnn2c1` [Example 98, ((1S,2R)-2-fluorocyclopropyl)(3-(6-(3-methoxy-1-methyl-1H-pyrazol-4-yl)pyrrolo[2,1-f][1,2,4]triazin-4-yl)-3,8-diazabicyclo[3.2.1]octan-8-yl)methanone] were 216 nM, 9.8 nM, 1640 nM and 672 nM.
Taken in the same sequence, the figures for `N#CCC(=O)N1C2CCC1CN(c1ncnn3cc(-c4cnn(C(F)F)c4)cc13)C2` [Example 44, 3-(3-(6-(1-(difluoromethyl)-1H-pyrazol-4-yl)pyrrolo[2,1-f][1,2,4]triazin-4-yl)-3,8-diazabicyclo[3.2.1]octan-8-yl)-3-oxopropanenitrile] were 4180 nM, 236 nM, 5390 nM and 395 nM.
Take `O=C(C1CC1)N1C2CCC1CN(c1ncnn3cc(-c4cnn(C5CCC5)c4)cc13)C2` [Example 149]: the IC50 amounted to 3130 nM in assay [1], 141 nM in assay [2], 3010 nM in assay [3] and 942 nM in assay [4].

(Values after patent publication US20240360157A1, “TYK2 INHIBITORS” (BIOGEN MA INC., priority 2021, published 2024).)
